Measurements: US11236084B2, “Substituted azaindoline derivatives as NIK inhibitors” (Janssen Pharmaceutica NV, priority 2017, dated 2022)
Where two headings read alike, the source gives them in different places.

Target: recombinant human NF-kappaB-inducing kinase (NIK/MAP3K14) (Homo sapiens, UniProt Q99558)
Test: Biological Assay B: inhibition of auto-phosphorylation of recombinant human NIK/MAP3K14 (AlphaScreen), performed at 2 locations
Format: biochemical
Conditions: AlphaScreen auto-phosphorylation, averaged values
Procedure: Inhibition of Auto-Phosphorylation of Recombinant Human NF-kappaB-Inducing Kinase (NIK/MAP3K14) Activity (AlphaScreen®)
NIK/MAP3K14 auto-phosphorylation activity was measured using the AlphaScreen® (αscreen) format (Perkin Elmer). All compounds tested were dissolved in dimethyl sulfoxide (DMSO) and further dilutions were made in assay buffer. Final DMSO concentration was 1% (v/v) in assays. Assay buffer was 50 mM Tris pH 7.5 containing 1 mM EGTA (ethylene glycol tetraacetic acid), 1 mM DTT (dithiothreitol), 0.1 mM Na3VO4, 5 mM MgCl2, 0.01% Tween® 20. Assays were carried out in 384 well Alphaplates (Perkin Elmer). Incubations consisted of compound, 25 microM Adenosine-5′-triphosphate (ATP), and 0.2 nM NIK/MAP3K14. Incubations were initiated by addition of GST-tagged NIK/MAP3K14 enzyme, carried out for 1 h at 25° C. and terminated by addition of stop buffer containing anti-phospho-IKK Ser176/180 antibody. Protein A Acceptor and Glutathione-Donor beads were added before reading using an EnVision® Multilabel Plate Reader (Perkin Elmer). Signal obtained in the wells containing blank samples was subtracted from all other wells and IC50's were determined by fitting a sigmoidal curve to % inhibition of control versus Log10 compound concentration.
Assay B was performed at 2 different locations.
Data for the compounds of the invention in the above assays are provided in Table A (the values in Table are averaged values over all measurements on all batches of a compound; values as IC50 (nM)). (‘n.c.’ means not calculated: ‘Co.’ means compound)

[1] = location 1, read-out: Assay B location 1 IC50
[2] = location 2, read-out: Assay B location 2 IC50

recombinant human NF-kappaB-inducing kinase (NIK/MAP3K14), sequence (Q99558 whole entry): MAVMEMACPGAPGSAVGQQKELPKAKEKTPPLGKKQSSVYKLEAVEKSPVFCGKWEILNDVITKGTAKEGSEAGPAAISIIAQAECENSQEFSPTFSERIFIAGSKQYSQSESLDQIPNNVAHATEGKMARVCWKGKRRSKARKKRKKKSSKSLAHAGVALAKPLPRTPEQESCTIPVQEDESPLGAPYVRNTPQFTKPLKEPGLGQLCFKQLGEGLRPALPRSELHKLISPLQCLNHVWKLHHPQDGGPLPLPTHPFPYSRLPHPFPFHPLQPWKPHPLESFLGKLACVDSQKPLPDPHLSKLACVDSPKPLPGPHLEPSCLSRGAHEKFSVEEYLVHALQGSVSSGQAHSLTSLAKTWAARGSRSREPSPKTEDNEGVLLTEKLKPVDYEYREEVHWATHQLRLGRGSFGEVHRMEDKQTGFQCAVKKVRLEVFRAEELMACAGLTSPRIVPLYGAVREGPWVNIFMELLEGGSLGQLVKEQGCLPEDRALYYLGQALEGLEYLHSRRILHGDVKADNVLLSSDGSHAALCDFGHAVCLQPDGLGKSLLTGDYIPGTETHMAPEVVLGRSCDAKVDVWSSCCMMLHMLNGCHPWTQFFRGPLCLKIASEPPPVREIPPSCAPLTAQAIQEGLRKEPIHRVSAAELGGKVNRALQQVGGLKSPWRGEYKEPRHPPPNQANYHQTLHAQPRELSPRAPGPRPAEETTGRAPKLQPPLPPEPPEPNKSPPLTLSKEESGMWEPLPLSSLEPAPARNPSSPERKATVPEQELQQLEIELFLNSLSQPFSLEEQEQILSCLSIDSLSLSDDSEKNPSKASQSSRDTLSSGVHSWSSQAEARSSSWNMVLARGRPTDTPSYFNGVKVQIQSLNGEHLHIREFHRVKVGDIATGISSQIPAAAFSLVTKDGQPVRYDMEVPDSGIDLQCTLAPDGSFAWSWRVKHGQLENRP

| IC50 [1] | IC50 [2] | Compound |
| --- | --- | --- |
| 61.7 nM | 38.9 nM | [2H]C([2H])([2H])c1ccccc1Nc1nccc(-c2cnc3c(c2)C(C)(CO)CN3)n1 (stereo not shown) [Compound 234] |
| ~6610 nM | > 10000 nM | COc1ccc(N2CCN(C)CC2)cc1Nc1nccc(-c2cnc3c(c2)C(C)(CO)CN3)n1 (stereo not shown) [Compound 238] |
| 389 nM | 355 nM | COc1ccc(-c2cnn(C)c2)cc1Nc1nccc(-c2cnc3c(c2)C(C)(CO)CN3)n1 (stereo not shown) [Compound 239] |
| 1860 nM | ~3090 nM | COc1ccc(N2CCOCC2)cc1Nc1nccc(-c2cnc3c(c2)C(C)(CO)CN3)n1 (stereo not shown) [Compound 241] |
| 35.5 nM | 13.8 nM | COc1cc(N2CC3(CCOCC3)C2)ccc1Nc1nccc(-c2cnc3c(c2)C(C)(CO)CN3)n1 (stereo not shown) [Compound 242] |
|  | 10 nM | COc1cc(N2CCOCC2)c(F)cc1Nc1nccc(-c2cnc3c(c2)C(C)(CO)CN3)n1 (stereo not shown) [Compound 243] |
|  | 3.6 nM | COc1cc(N2CCC(C#N)CC2)c(Cl)cc1Nc1nccc(-c2cnc3c(c2)C(C)(CO)CN3)n1 (stereo not shown) [Compound 245] |
| 38 nM | 22.4 nM | CC1(CO)CNc2ncc(-c3ccnc(Nc4ccccc4OC4CCOCC4)n3)cc21 (stereo not shown) [Compound 247] |
| 912 nM | 1230 nM | COc1cccc(F)c1Nc1nccc(-c2cnc3c(c2)C(C)(CO)CN3)n1 (stereo not shown) [Compound 250] |
| > 10000 nM | 6760 nM | COc1cccc(Cl)c1Nc1nccc(-c2cnc3c(c2)C(C)(CO)CN3)n1 (stereo not shown) [Compound 251] |
|  | 7.4 nM | COCCCN(C)c1cc(OC)c(Nc2nccc(-c3cnc4c(c3)C(C)(CO)CN4)n2)cc1Cl (stereo not shown) [Compound 252] |
| 4.5 nM | 0.7 nM | CCN1CCN(c2cc(OC)c(Nc3nccc(-c4cnc5c(c4)C(C)(CO)CN5)n3)cc2Cl)CC1 (stereo not shown) [Compound 268] |
| 21.4 nM | 5.8 nM | COc1cc(N2CC(OC)C2)c(F)cc1Nc1nccc(-c2cnc3c(c2)C(C)(CO)CN3)n1 (stereo not shown) [Compound 270] |
| 10.2 nM | 2.6 nM | COc1cc(N2CCN(C)CC2)c(F)cc1Nc1nccc(-c2cnc3c(c2)C(C)(CO)CN3)n1 (stereo not shown) [Compound 271] |
| 4 nM | 2.6 nM | CCN1CCN(c2cc(OC)c(Nc3nccc(-c4cnc5c(c4)C(C)(CO)CN5)n3)cc2F)CC1 (stereo not shown) [Compound 275] |
| 4.7 nM | 1 nM | COc1cc(N2CCC(N(C)C)C2)c(Cl)cc1Nc1nccc(-c2cnc3c(c2)C(C)(CO)CN3)n1 (stereo not shown) [Compound 278] |
|  | 2.7 nM | CCN1CCN(c2cc(OC)c(Nc3nccc(-c4cnc5c(c4)C(C)(CO)CN5)n3)cc2C#N)CC1 (stereo not shown) [Compound 279] |
| 6.9 nM | 2.5 nM | COc1cc(N2CCN(C)CC2)c(C#N)cc1Nc1nccc(-c2cnc3c(c2)C(C)(CO)CN3)n1 (stereo not shown) [Compound 280] |
| 15.9 nM | 3 nM | Cc1cc(N2CC3(CCOCC3)C2)c(F)cc1Nc1nccc(-c2cnc3c(c2)C(C)(CO)CN3)n1 (stereo not shown) [Compound 281] |
| 77.6 nM | 13.8 nM | COc1cc(N2CCOCC2)c(F)cc1Nc1nccc(-c2cnc3c(c2)C(C)(C)CN3)n1 [Compound 282] |
| 5.3 nM | 2.8 nM | COc1cc(OC2CCN(C)CC2)c(F)cc1Nc1nccc(-c2cnc3c(c2)C(C)(CO)CN3)n1 (stereo not shown) [Compound 283] |
| 7.4 nM | 1.1 nM | COc1cc(N2CC3(CCOC3)C2)c(Cl)cc1Nc1nccc(-c2cnc3c(c2)C(C)(CO)CN3)n1 (stereo not shown) [Compound 284] |
| 7.8 nM | 1.8 nM | COc1cc(N2CCC(OC)C2)c(Cl)cc1Nc1nccc(-c2cnc3c(c2)C(C)(CO)CN3)n1 (stereo not shown) [Compound 285] |

| IC50 [1] | IC50 [2] | Compound |
| --- | --- | --- |
| 3.9 nM | 1.3 nM | COc1cc(N2CC(OC)C2)c(Cl)cc1Nc1nccc(-c2cnc3c(c2)C(C)(CO)CN3)n1 (stereo not shown) [Compound 287] |
| 3.6 nM | 1.2 nM | COc1cc(N2CC(N(C)C)C2)c(Cl)cc1Nc1nccc(-c2cnc3c(c2)C(C)(CO)CN3)n1 (stereo not shown) [Compound 289] |
| 3.1 nM | 1.4 nM | COc1cc(C(=O)N2CCC(OC)C2)c(Cl)cc1Nc1nccc(-c2cnc3c(c2)C(C)(CO)CN3)n1 (stereo not shown) [Compound 290] |
| 4.3 nM | 1.6 nM | COc1cc(C(=O)N2CCC(OC)C2)c(Cl)cc1Nc1nccc(-c2cnc3c(c2)C(C)(C)CN3)n1 (stereo not shown) [Compound 292] |
| 12 nM | 2.3 nM | COc1cc(N2CCC2)c(Cl)cc1Nc1nccc(-c2cnc3c(c2)C(C)(CO)CN3)n1 (stereo not shown) [Compound 294] |
| 5.3 nM | 1.2 nM | COc1cc(C(=O)N2CCC(OC)CC2)c(Cl)cc1Nc1nccc(-c2cnc3c(c2)C(C)(CO)CN3)n1 (stereo not shown) [Compound 296] |
|  | 1.7 nM | COc1cc(N2CC(O)C2)c(Cl)cc1Nc1nccc(-c2cnc3c(c2)C(C)(CO)CN3)n1 (stereo not shown) [Compound 302] |
| 18.2 nM | 5.9 nM | COc1cc(N2CC(C)(C)C2)c(Cl)cc1Nc1nccc(-c2cnc3c(c2)C(C)(CO)CN3)n1 (stereo not shown) [Compound 304] |
| 12.3 nM | 3.1 nM | COc1c(Nc2nccc(-c3cnc4c(c3)C(C)(CO)CN4)n2)cc(Cl)cc1N1CCOCC1 (stereo not shown) [Compound 307] |
| 6.8 nM | 2.2 nM | COc1cc(N2CCN(C3CC3)CC2)c(Cl)cc1Nc1nccc(-c2cnc3c(c2)C(C)(CO)CN3)n1 (stereo not shown) [Compound 309] |
| 3.9 nM | 0.9 nM | COCCN1CCN(c2cc(OC)c(Nc3nccc(-c4cnc5c(c4)C(C)(CO)CN5)n3)cc2Cl)CC1 (stereo not shown) [Compound 311] |
| 6.9 nM | 4.9 nM | COc1cc(N2CC(C)(O)C2)c(Cl)cc1Nc1nccc(-c2cnc3c(c2)C(C)(CO)CN3)n1 (stereo not shown) [Compound 313] |
| 4.1 nM | 3.1 nM | COc1cc(OCCN(C)C)c(Cl)cc1Nc1nccc(-c2cnc3c(c2)C(C)(CO)CN3)n1 (stereo not shown) [Compound 314] |
| 1.6 nM | 1.7 nM | COc1cc(C2CCN(C)CC2)c(Cl)cc1Nc1nccc(-c2cnc3c(c2)C(C)(CO)CN3)n1 (stereo not shown) [Compound 317] |
| 4.9 nM | 1.5 nM | CCN1CCN(c2cc(OC)c(Nc3nccc(-c4cnc5c(c4)C(C)(CO)CN5)n3)cc2C)CC1 (stereo not shown) [Compound 318] |
| 4.2 nM | 1.2 nM | COCCN1CCC(c2cc(OC)c(Nc3nccc(-c4cnc5c(c4)C(C)(CO)CN5)n3)cc2Cl)CC1 (stereo not shown) [Compound 319] |
| 2.7 nM | 1 nM | COc1cc(OCCN2CCN(C)CC2)c(Cl)cc1Nc1nccc(-c2cnc3c(c2)C(C)(CO)CN3)n1 (stereo not shown) [Compound 320] |
| 3.6 nM | 1.6 nM | COCCN1CC(c2cc(OC)c(Nc3nccc(-c4cnc5c(c4)C(C)(CO)CN5)n3)cc2Cl)C1 (stereo not shown) [Compound 321] |
|  | 1.7 nM | COc1cc(OCC(=O)N(C)C)c(Cl)cc1Nc1nccc(-c2cnc3c(c2)C(C)(CO)CN3)n1 (stereo not shown) [Compound 322] |
| 22.9 nM | 7.2 nM | COCC(C)(C)CNc1cc(OC)c(Nc2nccc(-c3cnc4c(c3)C(C)(CO)CN4)n2)cc1F (stereo not shown) [Compound 323] |
| 7.9 nM | 3.8 nM | COc1cc(CN2CCOCC2)c(Cl)cc1Nc1nccc(-c2cnc3c(c2)C(C)(CO)CN3)n1 (stereo not shown) [Compound 324] |
|  | 3.6 nM | COc1cc(N2CCC(O)C2)c(Cl)cc1Nc1nccc(-c2cnc3c(c2)C(C)(CO)CN3)n1 (stereo not shown) [Compound 325] |
| 6.3 nM | 2.3 nM | COc1cc(N2CCC(OC)CC2)c(Cl)cc1Nc1nccc(-c2cnc3c(c2)C(C)(CO)CN3)n1 (stereo not shown) [Compound 327] |
